Results as given in patent publication US20230322722A1, “MODULATORS OF MYC FAMILY PROTO-ONCOGENE PROTEIN” (Nalo Therapeutics, priority 2020, published 2023).
Values belong to the compound of their own block, whether it stands above or below them.

What was measured:
Format in all cases: cell-based
[1] = target: T1, MycN protein (Homo sapiens, UniProt P04198); test: Degradation of MycN protein, Western blot, SKNBE2 cells (Example 160)
T1 construct: either 2×10^6 of L-363 (human leukemia cell line) or SKNBE2 (neuroblastoma cell line) cells; endogenous in cells; host or cells: SKNBE2 / SK-N-BE(2) neuroblastoma cells
T1 sequence (P04198 1-464): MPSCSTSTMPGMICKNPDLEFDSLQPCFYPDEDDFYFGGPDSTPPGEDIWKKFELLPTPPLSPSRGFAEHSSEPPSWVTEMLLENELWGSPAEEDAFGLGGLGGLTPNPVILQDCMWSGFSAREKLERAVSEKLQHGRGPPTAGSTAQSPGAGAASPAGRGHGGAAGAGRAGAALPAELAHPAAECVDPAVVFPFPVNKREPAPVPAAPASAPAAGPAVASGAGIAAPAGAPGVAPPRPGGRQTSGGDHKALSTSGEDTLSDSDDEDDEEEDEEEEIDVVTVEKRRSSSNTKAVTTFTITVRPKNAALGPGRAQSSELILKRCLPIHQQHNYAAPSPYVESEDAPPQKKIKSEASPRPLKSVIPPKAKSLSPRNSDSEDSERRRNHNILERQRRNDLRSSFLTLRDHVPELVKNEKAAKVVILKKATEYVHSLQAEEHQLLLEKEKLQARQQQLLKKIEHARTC
In short: (§1)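 L-363 or SKNBE2 cells (passage <40, mostly <30) at 1×10^6 cells/mL in RPMI 1640/10% FBS were exposed 6 h to compound added from a 1 mM stock. RIPA lysates (25–30 ug protein) were analysed by SDS-PAGE and immunoblot with 1:500 primary antibody, with protein level quantified by band densitometry.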

[2] = target: T2, MycN protein (n-myc) (Homo sapiens, UniProt P04198); test: Degradation of MycN protein, 24 h treatment, JESS Western, SK-N-BE(2) cells (Example 161); details: SKNBE2 cells
T2 construct: either 2×10^6 of L-363 (human leukemia cell line) or SKNBE2 (neuroblastoma cell line) cells; endogenous in cells; host or cells: SKNBE2 / SK-N-BE(2) neuroblastoma cells
T2 sequence (P04198 1-464): T1 sequence (P04198 1-464)

[3] = target: T3, MycC protein (Homo sapiens, UniProt P01106); test: Degradation of MycC protein, Western blot, L-363 cells (Example 160); details: for inhibition at 2 µM: 6 h
T3 construct: either 2×10^6 of L-363 (human leukemia cell line) or SKNBE2 (neuroblastoma cell line) cells; endogenous in cells; host or cells: L-363 / L363 human leukemia cells
In short: as §1

[4] = target: T4, MycC protein (c-myc) (Homo sapiens, UniProt P01106); test: Degradation of MycC protein, 24 h treatment, JESS Western, L363 cells (Example 161); details: L-363 cells
T4 construct: either 2×10^6 of L-363 (human leukemia cell line) cells; endogenous in cells; host or cells: L-363 / L363 human leukemia cells
In short: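 L363 suspension cells were seeded at 1E6 per well and exposed to compound, prepared as 10 mM DMSO stocks, for 24 hrs. Cells were pelleted, washed with PBS and lysed on ice in RIPA buffer, and lysate protein was measured by BCA. c-myc was detected by JESS capillary Western in the chemiluminescence channel, normalised to tubulin and GAPDH loading controls read in the NIR channel against a DMSO control.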

T4 sequence (P01106 whole entry): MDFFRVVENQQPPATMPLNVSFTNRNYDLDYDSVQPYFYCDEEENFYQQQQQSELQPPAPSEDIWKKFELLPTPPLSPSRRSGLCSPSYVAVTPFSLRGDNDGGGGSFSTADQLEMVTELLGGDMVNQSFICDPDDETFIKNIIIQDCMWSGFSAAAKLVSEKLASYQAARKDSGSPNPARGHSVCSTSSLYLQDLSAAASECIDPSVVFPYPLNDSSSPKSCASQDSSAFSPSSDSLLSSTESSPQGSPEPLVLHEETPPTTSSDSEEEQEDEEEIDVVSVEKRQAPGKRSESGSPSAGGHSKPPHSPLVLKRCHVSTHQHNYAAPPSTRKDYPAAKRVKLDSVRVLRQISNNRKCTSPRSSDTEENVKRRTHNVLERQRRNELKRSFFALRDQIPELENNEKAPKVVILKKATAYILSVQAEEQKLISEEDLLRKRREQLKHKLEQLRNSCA
T3 sequence (P01106 whole entry): as above

inhibition at 2 µM ([1]; SKNBE2, 6 h): < 20%
inhibition at 0.5 µM ([2]; 0.5 μM): < 20%
inhibition at 1 µM ([2]; 1 μM): < 20%
inhibition at 3 µM ([2]; 3 μM): 20 to 49%
inhibition at 6 µM ([2]; 6 μM): 80 to 100%
inhibition at 2 µM [3]: 20 to 49%
inhibition at 0.5 µM ([4]; 0.5 μM): < 20%
inhibition at 1 µM ([4]; 1 μM): 20 to 49%
inhibition at 3 µM ([4]; 3 μM): 50 to 79%
inhibition at 6 µM ([4]; 6 μM): 80 to 100%
Compound: CN1CC2(CC(N(C)c3nccc(Nc4cc(C5CC5)[nH]n4)n3)C2)C1 [Compound 7, N4-(5-cyclopropyl-1H-pyrazol-3-yl)-N2-methyl-N2-(2-methyl-2-azaspiro[3.3]heptan-6-yl)pyrimidine-2,4-diamine]

inhibition at 2 µM ([1]; SKNBE2, 6 h): 80 to 100%
inhibition at 2 µM [3]: 80 to 100%
Compound: CN(c1nccc(Nc2cc(C3CC3)[nH]n2)n1)[C@H]1CC[C@H](NS(=O)(=O)c2cccc(S(C)(=O)=O)c2)CC1 [Compound 155, N-((1R,4R)-4-((4-((5-cyclopropyl-1H-pyrazol-3-yl)amino)pyrimidin-2-yl)(methyl)amino)cyclohexyl)-3-(methylsulfonyl)benzenesulfonamide]

Compound: CN(c1nccc(Nc2cc(C3CC3)[nH]n2)n1)[C@H]1CC[C@H](NS(=O)(=O)c2ccc(C#N)cn2)CC1 [Compound 156, 5-cyano-N-((1R,4R)-4-((4-((5-cyclopropyl-1H-pyrazol-3-yl)amino)pyrimidin-2-yl)(methyl)amino)cyclohexyl)pyridine-2-sulfonamide]
inhibition at 2 µM ([1]; 6 h): 50 to 79%
inhibition at 2 µM [3]: 80 to 100%

inhibition at 2 µM ([1]; SKNBE2, 6 h): 50 to 79%
inhibition at 2 µM [3]: 80 to 100%
Compound: CN(c1nccc(Nc2cc(C3CC3)[nH]n2)n1)[C@H]1CC[C@H](NS(=O)(=O)Cc2cccc(S(C)(=O)=O)c2)CC1 [Compound 157, N-((1R,4R)-4-((4-((5-cyclopropyl-1H-pyrazol-3-yl)amino)pyrimidin-2-yl)(methyl)amino)cyclohexyl)-1-(3-(methylsulfonyl)phenyl)methanesulfonamide]

inhibition at 2 µM ([1]; SKNBE2, 6 h): 50 to 79%
inhibition at 2 µM [3]: 80 to 100%
Compound: CN(c1nccc(Nc2cc(C3CC3)[nH]n2)n1)[C@H]1CC[C@H](NS(=O)(=O)Cc2cccc(C#N)c2)CC1 [Compound 158, 1-(3-cyanophenyl)-N-((1R,4R)-4-((4-((5-cyclopropyl-1H-pyrazol-3-yl)amino)pyrimidin-2-yl)(methyl)amino)cyclohexyl)methanesulfonamide]

% Degradation of MycN (SKNBE2) 6 h, 2 μM [1]: **** (degradation 80-100%)
% Degradation of MycC (L-363) 6 h, 2 μM [3]: **** (degradation 80-100%)
Compound: N-((1R,4R)-4-((4-((5-cyclopropyl-1H-pyrazol-3-yl)amino)pyrimidin-2-yl)(methyl)amino)cyclohexyl)-3-methylcyclopent-3-ene-1-sulfonamide [Compound 153]
